The values that follow come from PMC4963535, “Structure-guided development of heterodimer-selective GPCR ligands” (Nature Communications, 2016).

One experiment deals with D2LR/NTS1R (Homo sapiens, UniProt P14416+P30989). The experiment in a line: [3H]spiperone displacement, membranes from HEK 293 T cells coexpressing D2LR and NTS1R. Conditions: D2LR:NTS1R 1:2; mean ± s.e.m.
Another experiment deals with T1, hD4.4R (Homo sapiens, UniProt P21917).
T1 construct: expressed in transfected cells
T1 sequence (P21917 1-419): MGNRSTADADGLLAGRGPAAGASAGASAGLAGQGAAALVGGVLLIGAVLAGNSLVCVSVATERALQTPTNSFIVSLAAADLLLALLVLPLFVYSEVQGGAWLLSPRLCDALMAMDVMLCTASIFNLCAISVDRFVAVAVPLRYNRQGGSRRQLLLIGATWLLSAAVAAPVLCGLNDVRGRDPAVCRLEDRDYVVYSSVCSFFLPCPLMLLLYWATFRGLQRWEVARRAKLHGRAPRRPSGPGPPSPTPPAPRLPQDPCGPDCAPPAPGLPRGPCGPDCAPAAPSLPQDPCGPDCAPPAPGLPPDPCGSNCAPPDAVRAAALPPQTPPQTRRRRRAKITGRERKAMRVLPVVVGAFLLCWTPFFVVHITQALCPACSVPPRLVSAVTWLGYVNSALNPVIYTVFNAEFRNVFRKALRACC
The experiment is described as follows: [3H]spiperone displacement, membranes from CHO cells stably expressing hD4.4R. In kind it is binding.

Another experiment has as its target T2, D2R (Homo sapiens, UniProt P14416).
T2 construct: expressed in transfected cells; host or cells: HEK 293 T
The experiment in a line: Antagonist effect on quinpirole-mediated inhibition of cAMP accumulation, HEK 293T cells expressing D2R. In kind it is cell-based.

Structures are written as SMILES. “Also recorded” adds a separate entry of the source. Like-named read-outs stand apart in the source and are kept apart here.

Sequence of D2LR/NTS1R (P14416 whole entry): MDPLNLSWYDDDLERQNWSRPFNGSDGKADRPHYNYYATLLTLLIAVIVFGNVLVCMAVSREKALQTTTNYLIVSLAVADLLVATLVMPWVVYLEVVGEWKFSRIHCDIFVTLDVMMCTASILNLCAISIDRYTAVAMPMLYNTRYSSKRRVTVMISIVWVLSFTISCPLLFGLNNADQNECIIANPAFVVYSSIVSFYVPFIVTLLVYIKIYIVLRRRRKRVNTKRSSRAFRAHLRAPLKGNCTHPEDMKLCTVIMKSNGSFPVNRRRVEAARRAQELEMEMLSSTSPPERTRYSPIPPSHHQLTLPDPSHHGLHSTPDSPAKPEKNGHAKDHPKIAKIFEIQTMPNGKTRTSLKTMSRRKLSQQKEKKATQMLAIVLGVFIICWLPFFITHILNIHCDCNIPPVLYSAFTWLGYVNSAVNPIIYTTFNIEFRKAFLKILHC
Sequence of D2LR/NTS1R (P30989 whole entry): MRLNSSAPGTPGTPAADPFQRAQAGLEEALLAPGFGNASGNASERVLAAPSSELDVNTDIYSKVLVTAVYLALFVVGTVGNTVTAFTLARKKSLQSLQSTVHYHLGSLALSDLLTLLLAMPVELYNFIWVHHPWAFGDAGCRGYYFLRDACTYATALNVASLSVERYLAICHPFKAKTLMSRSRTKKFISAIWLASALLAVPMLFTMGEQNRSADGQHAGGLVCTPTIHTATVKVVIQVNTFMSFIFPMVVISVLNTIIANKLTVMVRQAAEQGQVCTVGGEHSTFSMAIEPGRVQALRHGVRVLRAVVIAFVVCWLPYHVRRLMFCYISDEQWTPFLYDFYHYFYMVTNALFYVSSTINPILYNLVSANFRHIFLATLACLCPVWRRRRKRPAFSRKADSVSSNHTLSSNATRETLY
T2 sequence (P14416 1-414 isoform P14416-2): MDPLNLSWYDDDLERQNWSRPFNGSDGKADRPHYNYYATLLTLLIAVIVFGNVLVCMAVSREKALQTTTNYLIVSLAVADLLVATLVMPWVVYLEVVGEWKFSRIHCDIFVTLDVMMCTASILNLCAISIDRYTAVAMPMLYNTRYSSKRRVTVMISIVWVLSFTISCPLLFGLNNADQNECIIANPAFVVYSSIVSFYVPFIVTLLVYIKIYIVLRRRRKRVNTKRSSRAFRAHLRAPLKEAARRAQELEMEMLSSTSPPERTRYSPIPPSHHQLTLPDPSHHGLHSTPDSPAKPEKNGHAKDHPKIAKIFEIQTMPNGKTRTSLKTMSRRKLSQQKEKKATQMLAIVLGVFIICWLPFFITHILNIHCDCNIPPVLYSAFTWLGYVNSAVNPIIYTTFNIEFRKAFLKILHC
Method for D2LR/NTS1R: Receptor-binding studies were carried out in analogy to a previously described method[53]. […] Protein concentration was established by the method of Lowry using bovine serum albumin as standard[54].
The resulting competition curves of the receptor-binding experiments were analysed by nonlinear regression using the algorithms in PRISM 6.0 (GraphPad Software, San Diego, CA). For each individual experiment, the data were fitted using a monophasic competition model to provide an IC50 value, which was then transformed into a Ki value according to the equation of Cheng and Prusoff[55].
Method for D2R: 24 h post-transfection cells were seeded into white half-area 96-well plates at 2.0 × 10^4 cells per well and grown overnight. On the following day phenol red free medium was removed and replaced by PBS and cells were serum starved for 1 h before treatment. The assay was started by adding 10 μl coelenterazine-h (Promega, Mannheim, Germany) to each well to yield a final concentration of 5 μM. After 5 min incubation, compounds were added in PBS containing 50 μM forskolin (final concentration 10 μM). Reads of the plates started 15 min after agonist addition. BRET readings were collected using a CLARIOstar plate reader (BMG LabTech, Ortenberg, Germany). […] Curves were normalized to basal BRET ratio obtained from dPBS (0%) and the effect of 10 μM forskolin (100%).
From the text for hD4.4R: In brief, competition binding experiments with the human D2LR, D2SR38, D3R39, and D4.4R40 receptors were perfomed using preparations of membranes from CHO cells stably expressing the corresponding receptor together with
the D2LR, D2SR, D3R, and D4.4R receptors, respectively. Homogenates from CHO cells stably expressing the human NTS1R (cDNA purchased from Missouri S&T cDNA Resource Center (UMR), Rolla, MO) at
1; PerkinElmer, Rodgau, Germany). Human NTS2R binding was achieved using homogenates from HEK
method41. Membranes were incubated at a final concentration of 4 µg per well with Bmax values of 350-
Freiburg, Germany). Unspecific binding was determined in the presence of haloperidol (10 µM for D2LR-
Protein concentration was established by the method of Lowry using bovine serum albumin as standard42.

By Ki is commonly meant the equilibrium dissociation constant of an inhibitor or competing ligand from its target. On to `CCc1cc(Cl)c(OC)c(C(=O)NC[C@@H]2C[C@@H](OCCCCc3cn(-c4ccc(-c5ccc(C(=O)NCCOCCOCCOCCOCCOCCOCCC(=O)NCCOCCOCCOCCOCCOCCOCCC(=O)N[C@@H](CCCNC(=N)N)C(=O)N[C@@H](CCCNC(=N)N)C(=O)N6CCC[C@H]6C(=O)N[C@@H](Cc6ccc(O)cc6)C(=O)N[C@H](C(=O)N[C@@H](CC(C)C)C(=O)O)[C@@H](C)CC)cc5)cc4)nn3)CN2CC)c1O` [1b], for which the “Fraction high (fraction representing the high-affinity binding site)” value (from here on “Fraction high”) at D2LR/NTS1R is on record as 31 ± 6%. The molecule also showed a Ki at hD4.4R of 0.85 ± 0.75 µM. On D2R (10 nM quinpirole), the “antagonist behaviour at D2R (in words)” value is listed as “inverse agonists; also recorded: inverse agonist effect” and the “decrease of the basal response (inverse agonist effect on basal cAMP level)” value was 32%.
As to `CCc1cc(Cl)c(OC)c(C(=O)NC[C@@H]2C[C@@H](OCCCCc3cn(-c4ccc(-c5ccc(C(=O)NCCOCCOCCOCCOCCOCCOCCC(=O)NCCOCCOCCOCCOCCOCCOCCC(=O)NCCOCCOCCOCCOCCOCCOCCC(=O)N[C@@H](CCCNC(=N)N)C(=O)N[C@@H](CCCNC(=N)N)C(=O)N6CCC[C@H]6C(=O)N[C@@H](Cc6ccc(O)cc6)C(=O)N[C@H](C(=O)N[C@@H](CC(C)C)C(=O)O)[C@@H](C)CC)cc5)cc4)nn3)CN2CC)c1O` [1c], the “Fraction high” value at D2LR/NTS1R was determined as 66 ± 5%. For the same molecule, the Ki at hD4.4R was found to be 0.42 ± 0.1 µM.
Consider `CC[C@H](C)[C@H](NC(=O)CN(CCc1ccc(O)cc1)C(=O)[C@@H]1CCCN1C(=O)[C@H](CCCNC(=N)N)NC(=O)[C@H](CCCNC(=N)N)NC(=O)CCOCCOCCOCCOCCOCCOCCNC(=O)CCOCCOCCOCCOCCOCCOCCNC(=O)c1ccc(-c2ccc(-n3cc(CCCCN4CCN(c5ccccc5OC)CC4)nn3)cc2)cc1)C(=O)N[C@@H](CC(C)C)C(=O)O` [2f], for which, on hD4.4R, the inhibitory constant (Ki) came to 0.26 ± 0.17 µM.
For the molecule `CCCN(CCCCc1cn(-c2ccc(-c3ccc(C(=O)NCCOCCOCCOCCOCCOCCOCCC(=O)NCCOCCOCCOCCOCCOCCOCCC(=O)NCCOCCOCCOCCOCCOCCOCCC(=O)NCCOCCOCCOCCOCCOCCOCCC(=O)N[C@@H](CCCNC(=N)N)C(=O)N[C@@H](CCCNC(=N)N)C(=O)N4CCC[C@H]4C(=O)N[C@@H](Cc4ccc(O)cc4)C(=O)N[C@H](C(=O)N[C@@H](CC(C)C)C(=O)O)[C@@H](C)CC)cc3)cc2)nn1)C1Cc2ccccc2C1` [3d], the “Fraction high” value at D2LR/NTS1R is listed as 53 ± 6%. The molecule further registered a Ki at hD4.4R of 0.18 ± 0.04 µM.
As usually defined, the IC50 is the midpoint of a concentration-inhibition curve. The low end stands for inhibition by little substance, the high end for a need for much substance. Take `CCc1cc(Cl)c(OC)c(C(=O)NC[C@@H]2CCCN2CC)c1O` [eticlopride, reference compound]: on D2R, the midpoint of inhibition, the IC50, lay at 0.0031 µM; the “antagonist behaviour at D2R (in words)” value is “inverse agonists; also recorded: inverse agonist effect”; the “decrease of the basal response (inverse agonist effect on basal cAMP level)” value is reported as 22%.
On to `CC[C@H](C)[C@H](NC(=O)[C@H](Cc1ccc(O)cc1)NC(=O)[C@@H]1CCCN1C(=O)[C@H](CCCNC(=N)N)NC(=O)[C@H](CCCNC(=N)N)NC(=O)CCOCCOCCOCCOCCOCCOCCNC(=O)CCOCCOCCOCCOCCOCCOCCNC(=O)CCOCCOCCOCCOCCOCCOCCNC(=O)CCOCCOCCOCCOCCOCCOCCNC(=O)c1ccc(-c2ccc(-n3cc(CCCCN4CCN(c5ccccc5OC)CC4)nn3)cc2)cc1)C(=O)N[C@@H](CC(C)C)C(=O)O` [2d], for which, at D2LR/NTS1R, the “Fraction high” value turned out to be 62 ± 3%. The molecule further came in with a Ki at hD4.4R of 0.37 ± 0.05 µM.
`CCc1cc(Cl)c(OC)c(C(=O)NC[C@@H]2C[C@@H](OCCCCc3cn(-c4ccc(-c5ccc(C(=O)NCCOCCOCCOCCOCCOCCOCCC(=O)N[C@@H](CCCNC(=N)N)C(=O)N[C@@H](CCCNC(=N)N)C(=O)N6CCC[C@H]6C(=O)N[C@@H](Cc6ccc(O)cc6)C(=O)N[C@H](C(=O)N[C@@H](CC(C)C)C(=O)O)[C@@H](C)CC)cc5)cc4)nn3)CN2CC)c1O` [1a] returned a Ki on hD4.4R of 0.47 ± 0.42 µM.
Same read-out and setting: for `CCCN(CCCCc1cn(-c2ccc(-c3ccc(C(=O)NCCOCCOCCOCCOCCOCCOCCC(=O)N[C@@H](CCCNC(=N)N)C(=O)N[C@@H](CCCNC(=N)N)C(=O)N4CCC[C@H]4C(=O)N[C@@H](Cc4ccc(O)cc4)C(=O)N[C@H](C(=O)N[C@@H](CC(C)C)C(=O)O)[C@@H](C)CC)cc3)cc2)nn1)C1Cc2ccccc2C1` [3a] the value was 0.025 ± 0.01 µM.
